Where two headings read alike, the source gives them in different places.
Key:
[1] = test system: NFκB; assay: NFκB luciferase assay (inhibition of TNFα-induced NFκB activity); type: cell-based, Human; conditions: HEK293 with NFκB luciferase reporter challenged with TNFα
Procedure: The smokeless tobacco used in these experiments was plain long-leaf Copenhagen tobacco purchased from a local vendor. Crude extract was extracted with methanol and water and clarified by centrifugation and filtration. The alkaloid extract was prepared from sodium hydroxide and methanol extraction, organic phase separation and purification. All treatment samples were prepared as a function of weight (μg/ml), and all samples were diluted in DMSO.
Human […] kidney cells (HEK293) transfected with an NFκB luciferase reporter were challenged with TNFα for three hours, then samples were applied to the challenged cells.
The effect of S-(−)-anatabine on TNFα-induced NFκB activity in vitro was determined as described in Example 1.

[2] = target: nAChR α3/β4 (Homo sapiens, UniProt P30926+P32297); type: cell-based
Sequence of nAChR α3/β4 (P32297 32-505): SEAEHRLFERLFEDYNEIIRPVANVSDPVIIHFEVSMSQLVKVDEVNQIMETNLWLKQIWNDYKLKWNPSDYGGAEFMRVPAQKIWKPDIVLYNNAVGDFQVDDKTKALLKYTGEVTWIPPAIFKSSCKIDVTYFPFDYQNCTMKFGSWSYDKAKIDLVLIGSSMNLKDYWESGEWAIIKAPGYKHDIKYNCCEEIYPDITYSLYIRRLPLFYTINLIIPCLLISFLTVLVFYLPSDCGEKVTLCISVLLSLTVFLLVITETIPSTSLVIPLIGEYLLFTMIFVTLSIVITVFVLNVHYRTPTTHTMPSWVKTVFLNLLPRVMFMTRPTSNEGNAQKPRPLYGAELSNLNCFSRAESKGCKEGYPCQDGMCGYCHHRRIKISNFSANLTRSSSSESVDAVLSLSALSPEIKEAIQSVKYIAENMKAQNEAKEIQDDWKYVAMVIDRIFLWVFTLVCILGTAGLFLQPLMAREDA
Sequence of nAChR α3/β4 (P30926 22-498): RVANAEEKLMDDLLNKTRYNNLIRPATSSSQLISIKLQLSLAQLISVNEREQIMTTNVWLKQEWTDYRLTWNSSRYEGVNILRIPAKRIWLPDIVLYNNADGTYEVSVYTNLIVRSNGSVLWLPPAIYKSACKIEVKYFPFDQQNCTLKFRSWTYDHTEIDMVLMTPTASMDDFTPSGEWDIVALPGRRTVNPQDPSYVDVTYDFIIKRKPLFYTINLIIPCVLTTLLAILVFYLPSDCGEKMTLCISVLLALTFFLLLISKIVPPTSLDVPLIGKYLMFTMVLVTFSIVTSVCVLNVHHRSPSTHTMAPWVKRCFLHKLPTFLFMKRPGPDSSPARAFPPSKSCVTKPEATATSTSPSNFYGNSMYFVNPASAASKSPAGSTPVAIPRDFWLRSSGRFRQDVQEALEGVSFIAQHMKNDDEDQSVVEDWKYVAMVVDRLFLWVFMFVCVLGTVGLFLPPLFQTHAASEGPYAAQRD
Procedure: (§1) Briefly, cells were incubated with […] dye for 30 min at 37° C.

[3] = target: T1, nAChR α4/β2 (Homo sapiens, UniProt P17787+P43681); type: cell-based; conditions: for Normalized % Potentiation: with 10 μM Ach, 100% = 10 μM Ach+3 μM epibatidine, 0% = 10 μM Ach
T1 construct: host or cells: HEK293 cells, transient
T1 sequence (P43681 29-627): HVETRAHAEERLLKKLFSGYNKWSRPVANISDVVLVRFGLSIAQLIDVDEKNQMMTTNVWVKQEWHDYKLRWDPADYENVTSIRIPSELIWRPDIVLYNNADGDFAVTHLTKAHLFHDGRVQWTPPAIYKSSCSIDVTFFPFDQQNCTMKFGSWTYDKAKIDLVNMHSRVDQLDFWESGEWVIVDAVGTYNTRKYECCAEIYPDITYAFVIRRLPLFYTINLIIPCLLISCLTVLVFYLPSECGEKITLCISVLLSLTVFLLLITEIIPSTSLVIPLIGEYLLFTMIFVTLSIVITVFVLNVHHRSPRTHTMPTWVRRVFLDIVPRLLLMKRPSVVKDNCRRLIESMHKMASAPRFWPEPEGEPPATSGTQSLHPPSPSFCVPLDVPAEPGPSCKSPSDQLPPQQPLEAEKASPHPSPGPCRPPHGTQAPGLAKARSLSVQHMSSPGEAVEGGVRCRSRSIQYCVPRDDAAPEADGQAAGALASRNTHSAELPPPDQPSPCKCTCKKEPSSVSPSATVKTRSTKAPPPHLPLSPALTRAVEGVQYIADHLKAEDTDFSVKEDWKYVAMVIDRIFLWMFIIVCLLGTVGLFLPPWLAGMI
T1 sequence (P17787 26-502): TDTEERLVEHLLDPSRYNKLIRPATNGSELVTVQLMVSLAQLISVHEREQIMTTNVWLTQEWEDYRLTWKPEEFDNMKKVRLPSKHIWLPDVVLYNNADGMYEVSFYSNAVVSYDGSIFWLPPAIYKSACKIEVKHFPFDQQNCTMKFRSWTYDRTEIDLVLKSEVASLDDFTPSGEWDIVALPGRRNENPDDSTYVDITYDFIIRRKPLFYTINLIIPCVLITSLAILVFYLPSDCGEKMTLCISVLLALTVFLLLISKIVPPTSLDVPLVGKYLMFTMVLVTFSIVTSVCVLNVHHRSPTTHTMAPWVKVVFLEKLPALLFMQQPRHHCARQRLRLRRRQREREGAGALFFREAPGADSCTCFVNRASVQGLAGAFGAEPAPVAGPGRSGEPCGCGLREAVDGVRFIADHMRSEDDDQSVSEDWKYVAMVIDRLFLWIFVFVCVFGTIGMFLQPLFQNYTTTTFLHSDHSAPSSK
Procedure: as §1

SMILES: CN1CCCC1c1cccnc1.O=C(O)C(O)C(O)C(=O)O (single isomer, unassigned; (-)) [Nicotine, (−) Nicotine hydrogen tartrate, reference compound]
- Effect on TNFα-induced NFκB-mediated transcription of luciferase [1]: reduce TNFα-induced NFκB-mediated transcription
- potentiation [2]: Neither nicotine nor anatabine potentiated
- inhibition ([3]; 100 μM Ach + 0.3 μM epibatidine, not concentration-dependent, IC50s could not be determined): inhibited receptor activity
- Normalized % Potentiation ([3]; test conc 0.3 μM): −46.00%
- Normalized % Potentiation ([3]; test conc 1 μM): −46.34%
- Normalized % Potentiation ([3]; test conc 3 μM): −40.54%
- Normalized % Potentiation ([3]; test conc 10 μM): −42.16%
- Normalized % Potentiation ([3]; test conc 30 μM): −43.70%
- Normalized % Potentiation ([3]; test conc 100 μM): −43.40%
- Normalized % Potentiation ([3]; test conc 300 μM): −34.56%
- Normalized % Potentiation ([3]; test conc 1000 μM): −39.66%
